In patent publication US20230072421A1, “TARGETED RADIOPHARMACEUTICALS FOR THE DIAGNOSIS AND TREATMENT OF PROSTATE CANCER” (Bayer AS, priority 2019, published 2023):

Key:
C4-2 cells = assay: Cell proliferation assay (CellTiter-Glo, 5-day exposure), C4-2; format: cell-based; conditions: C4-2, 1000 cells/well, Th-227 labelled at 375 kBq/nmol, mean of 1 to 6 experiments
Method in brief: (§1)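 Cells were plated (4000/well VCaP, 1000/well for the other lines), left overnight at 37 °C with 5% CO2, then exposed for 5 days to Thorium-227-labelled PSMA ligands. Viability before and after exposure was measured by CellTiter-Glo.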

VCaP cells = assay: Cell proliferation assay (CellTiter-Glo, 5-day exposure), VCaP; format: cell-based; conditions: 4000 cells/well, Th-227 labelled at 375 kBq/nmol, mean of 1 to 6 experiments
Method in brief: as §1

LNCaP cells = assay: Cell proliferation assay (CellTiter-Glo, 5-day exposure), LNCaP; format: cell-based, human; conditions: LNCaP, 1000 cells/well; Th-227 labelled at 375 kBq/nmol; 5-day exposure; mean of 1 to 6 experiments
Experimental: Inhibition of cell proliferation of Thorium-227 labeled PMSA SMOL ligands was tested different prostate cancer cell lines, namely 22Rv1, VCaP, C4-2 (all from ATCC, Manassas, Va., USA) and LNCaP (DMSZ, Braunschweig). Cells were seeded using the following conditions in 384 well plates (Corning) in 30 μl of growth media at 4000 cells/well for VCaP cells and 1000 cells/well for 22Rv1, C4-2 and LNCaP cells.
Cells were cultivated an incubator at 37° C. and 5% C02 over night. On the following days cells were treated in triplicates with serial dilutions of PSMA-SMOLs labeled with Th-227 at a specific activity of 375 kBq/nmol (RCP>70% as assessed by iTLC analysis; compounds where RCP was between 50-70% in individual experiments are marked with an * in the table) using a D300e Digital Dispenser (Tecan). In sister plates cell viability at treatment start (d=0) was determined using CellTiter-Glo® assay (CTG, Promega, Madison, Wis., USA), by adding 30 μl per well CTG solution, incubation for 10 min and reading of Luminescence in a PheraStarFSX instrument (BMG Labtech). After a 5-day exposure in the presenced of test compounds, cell viability of treated or untreated control cells was determined again using CellTiter-Glo® assay (Promega, Madison, Wis., USA). […] The DRC software is a Biobook Spreadsheet that was developed by Bayer AG and Bayer Business Services on the IDBS E-Workbook Suite platform (IDBS: ID Business Solutions Ltd., Guildford, UK).

Molecule | Proliferation assay on cancer cell lines by TTCs Default Pivot #3 IC50 [kBq/mL] C4-2 1000cells 375kBq/nmol (mean) (C4-2 cells) [kBq/mL] | Proliferation assay on cancer cell lines by TTCs Default Pivot #3 IC50 [kBq/mL] VCap 4000cells 375kBq/nmol (mean) (VCaP cells) [kBq/mL] | Proliferation assay on cancer cell lines by TTCs Default Pivot #3 IC50 [kBq/mL] LnCap 1000cells 375kBq/nmol (mean) (LNCaP cells) [kBq/mL]
O=C(O)CC[C@H](NC(=O)N[C@@H](CCCCNC(=O)[C@@H](Cc1ccc2cnccc2c1)NC(=O)[C@H]1CC[C@H](CNC(=O)C[N+]23CCN4CCN5CC[N+]6(CC2)CC(=O)[O][227Th-2]36([O]C(=O)C4)[O]C(=O)C5)CC1)C(=O)O)C(=O)O [Example 44-B-227Th, (3R,10S,14S)-3-[(isoquinolin-6-yl)methyl]-1,4,12-trioxo-1-{(1r,4S)-4-[(2-{4,7,10-tris[(carboxy-kappaO)methyl]-1,4,7,10-tetraazacyclododecan-1-yl-kappa^2N^1,N^4}acetamido)methyl]cyclohexyl}-2,5,11,13-tetraazahexadecane-10,14,16-tricarboxylato(3−)(^227Th)Thorium] | 0.67 | 0.71 | 0.08
CNc1cc(C[C@@H](NC(=O)[C@H]2CC[C@H](CNC(=O)CN3CCN4CCN5CCN(CC3)CC(=O)[O][227Th]([O]C(=O)C4)[O]C(=O)C5)CC2)C(=O)NCCCC[C@H](NC(=O)N[C@@H](CCC(=O)O)C(=O)O)C(=O)O)cc2ccccc12 [Example 37-B-227Th, (3R,10S,14S)-3-{[4-(methylamino)naphthalen-2-yl]methyl}-1,4,12-trioxo-1-{(1r,4S)-4-[(2-{4,7,10-tris[(carboxy-kappaO)methyl]-1,4,7,10-tetraazacyclododecan-1-yl-kappa^2N^1,N^4}acetamido)methyl]cyclohexyl}-2,5,11,13-tetraazahexadecane-10,14,16-tricarboxylato(3−)(^227Th)Thorium] | 1.19 | 0.87 | 0.13
{N^6-[3-(isoquinolin-3-yl)-N-{(1r,4S)-4-[(2-{4,7,10-tris[(carboxy-kappaO)methyl]-1,4,7,10-tetraazacyclododecan-1-yl-kappa^2N^1,N^4}acetamido)methyl]cyclohexane-1-carbonyl}alanyl]-N^2-{[(1S)-1,3-dicarboxypropyl]carbamoyl}-L-lysinato(3−)}(^227Th)Thorium [Example 36-B-227Th] | 3.88 | 0.75 | 0.16
O=C(O)CC[C@H](NC(=O)N[C@@H](CCCCNC(=O)[C@@H](Cc1ccc2cccnc2c1)NC(=O)[C@H]1CC[C@H](CNC(=O)C[N+]23CCN4CCN5CC[N+]6(CC2)CC(=O)[O][227Th-2]36([O]C(=O)C4)[O]C(=O)C5)CC1)C(=O)O)C(=O)O [Example 45-B-227Th, (3R,10S,14S)-1,4,12-trioxo-3-[(quinolin-7-yl)methyl]-1-{(1r,4S)-4-[(2-{4,7,10-tris[(carboxy-kappaO)methyl]-1,4,7,10-tetraazacyclododecan-1-yl-kappa^2N^1,N^4}acetamido)methyl]cyclohexyl}-2,5,11,13-tetraazahexadecane-10,14,16-tricarboxylato(3−)(^227Th)Thorium] | 1.02 | 0.94 | 0.14
